Data published in patent publication US12384969B2, “Enhancement of soil characteristics with lactobionate compounds” (Leprino Foods Company, priority 2017, dated 2025).

Assays:
[1] = test system: soil microbial biomass; experiment: Soil microbial biomass carbon (MBC), chloroform-fumigation extraction, two-month laboratory soil incubation
[2] = Water absorbed after exposure to 100% relative humidity for 4 hours (FIG. 6); type: physicochemical; details: nine substances plus control
Text: When one of the hydroxyl groups occurs in the alpha position, the PHA is a polyhydroxy alpha-hydroxy acid (AHA); when an additional sugar is attached to the PHA structure the molecule is a bionic acid. […] The multiple hydroxyl groups in PHAs attract and hydrogen bond surrounding water molecules, which increase the humectant properties of the compounds.

[3] = Akron, CO (Ak) soil, HC, 1 month
[4] = Akron, CO (Ak) soil, LC, 1 month
[5] = Fresno, CA (Fr) soil, HC, 1 month
[6] = Fresno, CA (Fr) soil, HC, 2 wks
[7] = Fresno, CA (Fr) soil, LC, 1 month
[8] = Fresno, CA (Fr) soil, LC, 2 wks

SMILES | MBC [1, 3] | MBC ([1]; Akron, CO (Ak) soil, HC, 2 wks) | MBC [1, 4] | MBC ([1]; Akron, CO (Ak) soil, LC, 2 wks) | MBC [1, 5] | MBC [1, 6] | MBC [1, 7] | MBC [1, 8] | Weight of water absorbed per mole of substance [2] | Total MBC compared between LB amendments ([1]; at 1 month)
O=C([O-])[C@H](O)[C@@H](O)[C@H](O[C@@H]1O[C@H](CO)[C@H](O)[C@H](O)[C@H]1O)[C@H](O)CO.O=C([O-])[C@H](O)[C@@H](O)[C@H](O[C@@H]1O[C@H](CO)[C@H](O)[C@H](O)[C@H]1O)[C@H](O)CO.[Ca+2] [Ca-LB, calcium lactobionate] | 6395.35^CDE mg C kg -soil | 9197.28^ABC mg C kg -soil | 9816.22^C mg C kg -soil | 13087.10^A mg C kg -soil | 11289.89^BC mg C kg -soil | 10362.94^A mg C kg -soil | 7560.73^CD mg C kg -soil | 10133.11^A mg C kg -soil | – | –
O=C([O-])[C@H](O)[C@@H](O)[C@H](O[C@@H]1O[C@H](CO)[C@H](O)[C@H](O)[C@H]1O)[C@H](O)CO.[K+] [K-LB, potassium lactobionate] | 7790.40^CD mg C kg -soil | 8349.51^AC mg C kg -soil | 10597.30^BC mg C kg -soil | 11189.75^A mg C kg -soil | 16689.85^AB mg C kg -soil | 1369.60^A mg C kg -soil | 7277.63^CD mg C kg -soil | 12167.76^A mg C kg -soil | – | –
O=C(O)[C@H](O)[C@@H](O)[C@H](O[C@@H]1O[C@H](CO)[C@H](O)[C@H](O)[C@H]1O)[C@H](O)CO [LBA, lactobionic acid] | – | – | – | – | – | – | – | – | highest | –
N.O=C(O)[C@H](O)[C@@H](O)[C@H](O[C@@H]1O[C@H](CO)[C@H](O)[C@H](O)[C@H]1O)[C@H](O)CO [NH4-LB, ammonium lactobionate] | 869.62^EF mg C kg -soil | 11037.60^A mg C kg -soil | 3225.38^DEF mg C kg -soil | 9911.52^A mg C kg -soil | 18504.80^A mg C kg -soil | 13627.26^A mg C kg -soil | 739.12^EF mg C kg -soil | 8610.50^AC mg C kg -soil | – | lower
